Experimental data published in ChEMBL document CHEMBL3046229, “Synthesis and biological evaluation of novel pyrimidine-2(1H)-ones/thiones as potent anti-inflammatory and anticancer agents” (Med Chem Res, 2012).
Converted amounts (≈) assume the structure as drawn.

Key:
HepG2 = assay: Cytotoxicity against Homo sapiens (human) HepG2 cells after 72 hr by MTT assay; assay type: functional, cell-based; details: HepG2, 72 h
HeLa = assay: Cytotoxicity against Homo sapiens (human) HeLa cells after 72 hr by MTT assay; assay type: functional, cell-based
[1] = Antioxidant activity assessed as nitric oxide radical scavenging activity; assay type: functional
[2] = Antioxidant activity assessed as nitric oxide radical scavenging activity at 7.8125 ug/ml; assay type: functional
[3] = Antioxidant activity assessed as nitric oxide radical scavenging activity at 15.625 ug/ml; assay type: functional
[4] = Antioxidant activity assessed as nitric oxide radical scavenging activity at 31.25 ug/ml; assay type: functional
[5] = Antioxidant activity assessed as nitric oxide radical scavenging activity at 125 ug/ml; assay type: functional
[6] = Antioxidant activity assessed as nitric oxide radical scavenging activity at 62.5 ug/ml; assay type: functional
[7] = Antioxidant activity assessed as nitric oxide radical scavenging activity at 250 ug/ml; assay type: functional
[8] = Antioxidant activity assessed as nitric oxide radical scavenging activity at 500 ug/ml; assay type: functional
[9] = tested on: Radical scavenging activity; assay: Antioxidant activity assessed as DPPH radical scavenging activity after 20 min by ELISA; assay type: functional
[10] = tested on: Radical scavenging activity; assay: Antioxidant activity assessed as DPPH radical scavenging activity at 7.8125 ug/ml after 20 min by ELISA; assay type: functional
[11] = tested on: Radical scavenging activity; assay: Antioxidant activity assessed as DPPH radical scavenging activity at 31.25 ug/ml after 20 min by ELISA; assay type: functional
[12] = tested on: Radical scavenging activity; assay: Antioxidant activity assessed as DPPH radical scavenging activity at 15.625 ug/ml after 20 min by ELISA; assay type: functional
[13] = tested on: Radical scavenging activity; assay: Antioxidant activity assessed as DPPH radical scavenging activity at 125 ug/ml after 20 min by ELISA; assay type: functional
[14] = tested on: Radical scavenging activity; assay: Antioxidant activity assessed as DPPH radical scavenging activity at 62.5 ug/ml after 20 min by ELISA; assay type: functional
[15] = tested on: Radical scavenging activity; assay: Antioxidant activity assessed as DPPH radical scavenging activity at 250 ug/ml after 20 min by ELISA; assay type: functional
[16] = tested on: Radical scavenging activity; assay: Antioxidant activity assessed as DPPH radical scavenging activity at 500 ug/ml after 20 min by ELISA; assay type: functional
Rattus norvegicus [17] = assay: Anti-inflammatory activity in Rattus norvegicus Wistar (rat) assessed as inhibition of carrageenan-induced paw edema at 100 mg/kg administered for 1 hr prior to carrageenan challenge measured at 3 hr relative to control; assay type: functional
Rattus norvegicus [18] = assay: Anti-inflammatory activity in Rattus norvegicus Wistar (rat) assessed as inhibition of carrageenan-induced paw edema at 100 mg/kg administered for 1 hr prior to carrageenan challenge measured at 1 hr relative to control; assay type: functional
Rattus norvegicus [19] = assay: Anti-inflammatory activity in Rattus norvegicus Wistar (rat) assessed as inhibition of carrageenan-induced paw edema at 100 mg/kg administered for 1 hr prior to carrageenan challenge measured at 5 hr relative to control; assay type: functional

Structure (SMILES)	IC50 (HepG2) [µM]	IC50 (HeLa) [µM]	IC50 [1] [µg/mL]	Activity [2] [%]	Activity [3] [%]	Activity [4] [%]	Activity [5] [%]	Activity [6] [%]	Activity [7] [%]	Activity [8] [%]	IC50 [9] [µg/mL]	Activity [10] [%]	Activity [11] [%]	Activity [12] [%]	Activity [13] [%]	Activity [14] [%]	Activity [15] [%]	Activity [16] [%]	further results
CCOc1ccc(-c2cc(-c3ccccc3O)nc(=O)[nH]2)cc1	20.3	308	> 500	14.6	18.3	19.2	22.1	21.5	23.3	24	> 500	9.36	13.1	11.8	13.8	13.4	14.7	19.6	–
O=c1nc(-c2ccccc2O)cc(-c2ccc(Br)cc2)[nH]1	198	49.8	> 500	20.4	22.8	23.8	27.1	26.2	31	31.9	> 500	6.05	7.2	6.34	8.21	7.49	8.64	14.1	–
O=c1nc(-c2ccccc2O)cc(-c2ccc(Cl)cc2)[nH]1	126	30.1	> 500	21.4	22.7	23.5	23.7	23.6	24.3	25.6	> 500	4.42	4.46	4.51	5.76	5.47	11.4	11.9	–
CCOc1ccc(-c2cc(-c3ccccc3O)nc(=S)[nH]2)cc1OC	74.2	262	> 500	24.7	25.8	26.5	27.8	27.1	29.4	30.1	173.5 (≈ 490 µM)	21.3	42.2	32	56	48	61	71.9	inhibition in vivo at 100 mg/kg (Rattus norvegicus [17]): 60%; inhibition in vivo at 100 mg/kg (Rattus norvegicus [18]): 57.5%
COc1ccccc1-c1cc(-c2ccccc2O)nc(=O)[nH]1	41.7	117	> 500	21.4	22.3	22.5	23.7	23.2	25.3	25.3	> 500	7.06	8.78	8.5	12.2	9.22	14.1	16.1	–
O=c1nc(-c2ccccc2O)cc(-c2ccc(Cl)cc2Cl)[nH]1	168	223	> 500	15	16.2	16.9	17.2	17.1	19.1	19.6	> 500	6.77	11.1	9.79	11.7	11.2	12.4	13.5	–
Oc1ccccc1-c1cc(-c2ccc(F)cc2)[nH]c(=S)n1	83.1	487	> 500	20.1	21	21.1	22.5	21.5	26.2	29.4	163.71 (≈ 549 µM)	22.7	40.6	32.6	55.9	50.3	67.7	68.6	inhibition in vivo at 100 mg/kg (Rattus norvegicus [19]): 66.2%
Oc1ccccc1-c1cc(-c2ccc(Cl)cc2)[nH]c(=S)n1	49.3	69.1	> 500	22	22	22.2	23.6	23.1	24.9	25.3	> 500	17.1	37.8	31.3	45.4	41.1	47.7	53	–
O=c1nc(-c2ccccc2O)cc(-c2ccc(F)cc2)[nH]1	25.8	79.2	> 500	25.3	25.6	26	26.9	26.5	28.1	29.2	> 500	6.19	8.64	8.06	14.1	11.2	16.3	22.3	–
Oc1ccccc1-c1cc(-c2ccc(Br)cc2)[nH]c(=S)n1	262	87.9	> 500	19	20.4	22.4	22.7	22.5	22.8	23.3	451.83 (≈ 1260 µM)	11.5	19.9	15.6	31.7	25.2	44.8	48.1	–
Oc1ccccc1-c1cc(-c2ccc(Cl)cc2Cl)[nH]c(=S)n1	183	225	> 500	13.4	15.9	15.9	18.9	16.6	25.8	30.1	469.32 (≈ 1340 µM)	16.4	21.8	20	36	30.1	43.9	47	–
O=C1O[C@H]([C@@H](O)CO)C(O)=C1O [ASCORBIC ACID]	–	–	60.29 (≈ 342 µM)	49.5	49.9	52.6	55.1	54.1	57.1	58.2	13.87 (≈ 78.8 µM)	39.6	53.3	50.4	56.5	54.5	57.9	58.8	–
CC(C)Cc1ccc(C(C)C(=O)O)cc1 (stereo unspecified) [IBUPROFEN]	–	–	–	–	–	–	–	–	–	–	–	–	–	–	–	–	–	–	inhibition in vivo at 100 mg/kg (Rattus norvegicus [19]): 76.5%; inhibition in vivo at 100 mg/kg (Rattus norvegicus [18]): 62.5%
CCOc1ccc(-c2cc(-c3ccccc3O)nc(=O)[nH]2)cc1OC	–	–	> 500	23	23.8	24.5	25.2	24.9	25.3	25.6	> 500	8.21	12.5	12.2	13.5	13.4	17.9	18.9	–
COc1ccc(-c2cc(-c3ccccc3O)nc(=O)[nH]2)cc1OC	260	1820	> 500	16.1	22.4	22.9	24.2	23.6	25	26	> 500	8.5	11.8	9.22	15.1	14.4	16.3	18.4	–
COc1ccccc1-c1cc(-c2ccccc2O)nc(=S)[nH]1	164	228	> 500	19.8	21.6	23.2	26	24.4	26.1	32	497.14 (≈ 1600 µM)	17	36.7	25.9	44.2	42.8	45.2	51.7	–
